Key:
[1] = tested on: K. pneumoniae ATCC 51504 (TEM-10); experiment: In vitro synergistic inhibitory concentration (SIC) assay; format: cell-based; conditions: Klebsiella pneumoniae, ATCC51504, 37° C. 20 hours, read-out: minimum inhibitory concentration, used alone
Description: (§1) 2) 30 μL dimethyl sulfoxide was added to columns 2-12 of the 96-V well plate. 60 μL prepared ceftazidime was added to column 1. 30 μL ceftazidime was transferred from column 1 to column 2 and mixed with a pipette. The same operation was continued until column 11, and 30 μL of the mixture in column 11 was discarded. This was the compound mother plate.
(§2) Mix the liquid in the mother plate with a pipette.
(§3) 4) One day before the experiment, the bacterial glycerol stock which was stored in a −80° C. refrigerator was streaked on a trypticase soy agar plate (TSA), and the plate was incubated in a 37° C. incubator overnight. On the day of the experiment, the monoclonal bacterial was suspended in physiological saline and the turbidity of which was adjusted to 0.5 McFarland standard, corresponding to 1×10^8 CFU/ml. This suspension was diluted 100-fold to 1×10^6 CFU/mL with caton-adjusted Mueller-Hnton broth (CAMHB), which was used as an inoculation fluid.
(§4) 5) a 96-U plate was used as a test plate. Firstly, adding 98 μL CAMHB to each well of the test plate and transferring 2 μL solution in the mother plate to the test plate. 100 μL inoculation fluid was added to each well of the test plate.
(§5) 6) The test plate was incubated at 37° C. for 20 hours.
(§6) The above-mentioned method was also used to determine the antibacterial activity of the test compound or the antibiotic when used alone.

[2] = tested on: K. pneumoniae ATCC BAA-1705 (KPC); experiment: as above; format: cell-based; conditions: Klebsiella pneumoniae, ATCCBAA1705, 37° C. 20 hours, read-out: minimum inhibitory concentration, used alone
Description: as §1, §2, §3, §4, §5, §6

[3] = tested on: K. pneumoniae ATCC BAA-1899 (KPC); experiment: as above; format: cell-based; conditions: Klebsiella pneumoniae, ATCCBAA1899, 37° C. 20 hours, read-out: minimum inhibitory concentration, used alone
Description: as §1, §2, §3, §4, §5, §6

[4] = tested on: K. pneumoniae ATCC BAA-2472 (NDM-1); experiment: as above; format: cell-based; conditions: Klebsiella pneumoniae, ATCCBAA2472, 37° C. 20 hours, read-out: minimum inhibitory concentration, used alone
Description: as §1, §2, §3, §4, §5, §6

[5] = tested on: K. pneumoniae ATCC BAA-205 (TEM-1/SHV-1/SHV-12); experiment: as above; format: cell-based; conditions: Klebsiella pneumoniae, ATCCBAA205, 37° C. 20 hours, read-out: minimum inhibitory concentration, used alone
Description: as §1, §2, §3, §4, §5, §6

[6] = tested on: K. pneumoniae ATCC-700603 (SHV-18); experiment: as above; format: cell-based; conditions: Klebsiella pneumoniae, ATCC700603, 37° C. 20 hours, read-out: minimum inhibitory concentration, used alone
Description: as §1, §2, §3, §4, §5, §6

[7] = tested on: E. cloacae ATCC BAA-1143 (AmpC); experiment: as above; format: cell-based; conditions: Enterobacter cloacae, ATCCBAA1143, 37° C. 20 hours, read-out: minimum inhibitory concentration, used alone
Description: as §1, §2, §3, §4, §5, §6

[8] = tested on: K. pneumoniae ATCC BAA-1144 (AmpC); experiment: as above; format: cell-based; conditions: Klebsiella pneumoniae, ATCCBAA1144, 37° C. 20 hours, read-out: minimum inhibitory concentration, used alone
Description: as §1, §2, §3, §4, §5, §6

[9] = tested on: K. pneumoniae ATCC 51503 (TEM-10/12); experiment: as above; format: cell-based; conditions: Klebsiella pneumoniae, ATCC51503, 37° C. 20 hours, read-out: minimum inhibitory concentration, used alone
Description: as §1, §2, §3, §4, §5, §6

[10] = tested on: K. pneumoniae ATCC BAA-1898 (KPC); experiment: as above; format: cell-based; conditions: Klebsiella pneumoniae, ATCCBAA1898, 37° C. 20 hours, read-out: minimum inhibitory concentration, used alone
Description: as §1, §2, §3, §4, §5, §6

[11] = tested on: K. pneumoniae ATCC BAA-2470 (NDM-1); experiment: as above; format: cell-based; conditions: Klebsiella pneumoniae, ATCCBAA2470, 37° C. 20 hours, read-out: minimum inhibitory concentration, used alone
Description: as §1, §2, §3, §4, §5, §6

[12] = biological target: OXA-2 (Class D) β-lactamase (Escherichia coli, UniProt P0A1V9); experiment: In vitro enzymatic assay (Nitrocefin); format: biochemical
Description: (§7) 2) Prepare buffer solution A (1×PBS, pH 7.4, 0.1 mg/mL BSA) for enzymatic assay;
(§8) 3) The compound mother liquor was 4-fold serial diluted for 11 times with DMSO in a 96-well tip-bottom plate, which was used as a working solution. A 96-well flat bottom plate was used as a test plate, the corresponding reaction buffer was previously added to each well, followed by addition of a corresponding volume of the working solution (100 μM-0.095 nM and 0 nM). Wherein, EDTA-Na2 was used as a control for the NDM-1 test at a concentration of 20 mM;
(§9) 4) adding the corresponding β-lactamase, and the test plate was incubated at 37° C. for 5 minutes;
(§10) 5) Adding 5 μL Nitrocefin (the final reaction volume was 100 μL), the absorbance OD490 of the reaction solution in the plate was measured by a microplate reader and the result was recorded, the absorbance was measured every minute over 30 minutes;
(§11) 6) The microplate reader could give a curve of OD490 over time. The slope of the curve (Abs2−Abs1)/(T2−T1) was calculated by taking two data points Abs1 and Abs2 within the linear range of the curve.
(§12) 7) The relative inhibition rate was calculated as follows: Slope (EC) was calculated under the condition of absence of an inhibitor, and Slop(S) was calculated under the condition of an inhibitor at a certain concentration.
(§13) The relative inhibition rate and the corresponding concentration of the inhibitor were used to calculate the IC50 value of the inhibitor on β-lactamase. In this experiment, the IC50 was calculated using the formula of GraphPad Prism 5.0, log(inhibitor) vs. normalized response-Variable slope.

[13] = biological target: AmpC-PA (Class C) β-lactamase (Pseudomonas aeruginosa, UniProt P24735); experiment: In vitro enzymatic assay (Nitrocefin); format: biochemical
Description: as §7, §8, §9, §10, §11, §12, §13

[14] = biological target: TEM-1 (Class A) β-lactamase (Escherichia coli, UniProt P62593); experiment: In vitro enzymatic assay (Nitrocefin); format: biochemical; conditions: Nitrocefin 0.1 mM, 1 × PBS pH 7.4, 0.1 mg/mL BSA, read-out: IC50, inhibitory activity on β-lactamase
Description: as §7, §8, §9, §10, §11, §12, §13

[15] = biological target: KPC (Class A) β-lactamase (Klebsiella pneumoniae, UniProt Q9F663); experiment: In vitro enzymatic assay (Nitrocefin); format: biochemical
Description: as §7, §8, §9, §10, §11, §12, §13

[16] = biological target: OXA-9 (Class D) β-lactamase (Klebsiella pneumoniae, UniProt P0A3M3); experiment: In vitro enzymatic assay (Nitrocefin); format: biochemical
Description: as §7, §8, §9, §10, §11, §12, §13

[17] = biological target: AmpC-EC (Class C) β-lactamase (UniProt P05364); experiment: In vitro enzymatic assay (Nitrocefin); format: biochemical; conditions: Nitrocefin 0.1 mM, 1 × PBS pH 7.4, 0.1 mg/mL BSA, read-out: IC50, inhibitory activity on β-lactamase
Description: as §7, §8, §9, §10, §11, §12, §13

[18] = biological target: CTX-M-44 (Class C) β-lactamase (Escherichia coli, UniProt Q47066); experiment: In vitro enzymatic assay (Nitrocefin); format: biochemical
Description: as §7, §8, §9, §10, §11, §12, §13

AmpC-PA (Class C) β-lactamase, sequence (P24735 27-397): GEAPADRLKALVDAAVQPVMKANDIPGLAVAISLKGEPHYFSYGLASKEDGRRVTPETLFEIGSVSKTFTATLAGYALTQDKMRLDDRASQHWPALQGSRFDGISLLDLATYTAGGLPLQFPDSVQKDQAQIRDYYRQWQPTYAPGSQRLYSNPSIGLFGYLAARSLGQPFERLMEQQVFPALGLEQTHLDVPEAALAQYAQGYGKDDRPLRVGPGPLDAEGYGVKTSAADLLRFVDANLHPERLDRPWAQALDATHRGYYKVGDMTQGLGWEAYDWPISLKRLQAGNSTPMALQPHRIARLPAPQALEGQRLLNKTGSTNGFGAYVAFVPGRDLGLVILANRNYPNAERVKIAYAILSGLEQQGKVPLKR
TEM-1 (Class A) β-lactamase, sequence (P62593 24-286 limits assumed): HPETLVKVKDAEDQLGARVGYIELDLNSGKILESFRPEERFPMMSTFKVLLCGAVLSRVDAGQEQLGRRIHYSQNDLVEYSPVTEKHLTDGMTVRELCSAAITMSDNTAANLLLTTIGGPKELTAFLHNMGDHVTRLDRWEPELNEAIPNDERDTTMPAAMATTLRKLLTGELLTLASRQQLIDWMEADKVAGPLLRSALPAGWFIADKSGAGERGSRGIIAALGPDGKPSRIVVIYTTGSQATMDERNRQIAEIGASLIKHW
CTX-M-44 (Class C) β-lactamase, sequence (Q47066 30-291): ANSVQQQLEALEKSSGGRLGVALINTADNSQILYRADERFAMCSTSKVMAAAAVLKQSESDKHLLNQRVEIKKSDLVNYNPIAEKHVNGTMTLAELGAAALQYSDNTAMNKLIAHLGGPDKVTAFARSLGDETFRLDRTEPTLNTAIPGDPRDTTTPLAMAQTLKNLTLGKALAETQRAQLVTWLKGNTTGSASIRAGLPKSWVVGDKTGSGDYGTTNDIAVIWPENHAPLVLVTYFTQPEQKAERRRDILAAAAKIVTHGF
OXA-9 (Class D) β-lactamase, sequence (P0A3M3 25-274): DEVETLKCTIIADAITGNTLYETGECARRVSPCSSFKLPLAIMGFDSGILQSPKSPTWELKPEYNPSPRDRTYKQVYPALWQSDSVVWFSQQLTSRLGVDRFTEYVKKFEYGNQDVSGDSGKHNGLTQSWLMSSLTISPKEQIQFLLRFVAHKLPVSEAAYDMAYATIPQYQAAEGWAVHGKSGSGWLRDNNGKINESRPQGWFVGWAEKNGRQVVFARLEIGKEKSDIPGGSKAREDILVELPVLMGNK
KPC (Class A) β-lactamase, sequence (Q9F663 25-293 limits assumed): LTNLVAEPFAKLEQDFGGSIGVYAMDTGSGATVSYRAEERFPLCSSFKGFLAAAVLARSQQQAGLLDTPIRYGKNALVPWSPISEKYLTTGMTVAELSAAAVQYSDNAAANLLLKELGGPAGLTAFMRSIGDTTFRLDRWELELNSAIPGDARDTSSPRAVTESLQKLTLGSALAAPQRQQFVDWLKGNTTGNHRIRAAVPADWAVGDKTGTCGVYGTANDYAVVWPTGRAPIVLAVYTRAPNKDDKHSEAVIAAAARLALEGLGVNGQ
OXA-2 (Class D) β-lactamase, sequence (P0A1V9 22-275): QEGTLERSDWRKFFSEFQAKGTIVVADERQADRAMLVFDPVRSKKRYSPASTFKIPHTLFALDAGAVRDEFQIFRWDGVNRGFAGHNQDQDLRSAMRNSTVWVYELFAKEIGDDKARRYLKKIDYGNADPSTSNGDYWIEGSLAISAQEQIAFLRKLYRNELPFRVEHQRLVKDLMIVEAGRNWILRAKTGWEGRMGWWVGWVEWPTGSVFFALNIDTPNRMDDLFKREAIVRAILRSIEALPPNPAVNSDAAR

SMILES: N=C(N)NOCCONC(=O)[C@@H]1CC[C@@H]2CN1C(=O)N2OS(=O)(=O)O [Compound 1]
- MIC [1]: > 128 µg/mL
- MIC [2]: 128 µg/mL
- MIC [3]: > 128 µg/mL
- MIC [4]: > 128 µg/mL
- MIC [5]: 128 µg/mL
- MIC [6]: > 128 µg/mL
- MIC [7]: 16 µg/mL
- MIC [8]: 128 µg/mL
- MIC [9]: > 128 µg/mL
- MIC [10]: > 128 µg/mL
- MIC [11]: > 128 µg/mL
- IC50 [12]: 1550 nM
- IC50 [13]: 98.6 nM
- IC50 [14]: 38.9 nM
- IC50 [15]: 43.1 nM
- IC50 [16]: 5000 nM
- IC50 [17]: 20.2 nM
- IC50 [18]: 31.9 nM

Source: patent US10738051B2, “β-lactamase inhibitors” (priority 2016, dated 2020)
